Data taken from patent US20180263925A1, “METHODS FOR THE TREATMENT OF ALOPECIA AREATA UTILIZING GENE MODULATION APPROACHES” (RXi Pharmaceuticals Corporation, priority 2014, published 2018).
Read-outs that look alike come from different tables or passages of the source.

Columns and labels:
[1] = Solubility of DPCP in solvents for gels and ointments; format: physicochemical
Procedure: (§1) The compatibility and solubility of DPCP was determined in both isopropyl myristate (IPM) as well as Polysorbate 80 (PS80). […] Next, the stability of DPCP in these solvents was determined. A solution of 0.4% DPCP in isopropyl myristate and a solution of 0.4% DPCP in Polysorbate 80 was placed at 50° C. for two weeks. The stability of DPCP in these solvents was determined using reverse phase HPLC on a C18 column.

[2] = Stability of DPCP in solvents at 50° C., reverse phase HPLC on a C18 column; format: physicochemical
Procedure: as §1
For the development of a gel formulation, the stability of DPCP was determined in both Ethanol (ETOH) and Isopropanol (IPA) (0.4% DPCP solutions in each solvent was placed at 50° C. for two weeks; FIG. 2. All solutions contained 0.1% BHT). […] However, DPCP was stable in IPA. The stability of DPCP in the above solvents was determined using reverse phase HPLC on a C18 column.

alopecia areata = conditions: cited from earlier work
CTGF mRNA = conditions: rat skin, cited from earlier work; for reduction of CTGF mRNA: Days 1 and 3, biopsy Day 8, vs dose matched non-targeting control

solubility of DPCP ([1]; in Polysorbate 80 (PS80))	solubility of DPCP ([1]; in isopropyl myristate (IPM))	stability of DPCP ([2]; 0.4% DPCP in Ethanol, 0.1% BHT, in the presence of citric acid, 50° C., two weeks)	stability of DPCP ([2]; 0.4% DPCP in Isopropanol (IPA), 0.1% BHT, 50° C., two weeks)	stability of DPCP ([2]; 0.4% DPCP in Polysorbate 80, 50° C., two weeks)	stability of DPCP ([2]; 0.4% DPCP in isopropyl myristate, 50° C., two weeks)	stability of DPCP ([2]; in PS80 with butylated hydroxytoloune (BHT))	Molecule	initial hair regrowth visible after (alopecia areata; alopecia areata patients, 2% sensitizing dose followed by 0.001% challenge doses)	response rates (alopecia areata; in over 25 different studies for treating AA with haptens)	reduction of CTGF mRNA (CTGF mRNA; 300 μg per intradermal injection)	reduction of CTGF mRNA (CTGF mRNA; 600 μg per intradermal injection)	duration of silencing of CTGF vs. non-targeting control (CTGF mRNA; following two intradermal injections)
highly soluble	~1.1 % w/w	Some degradation	stable	some degradation	stable	reduce the amount of degradation	O=c1c(-c2ccccc2)c1-c1ccccc1 [DPCP, Diphenylcyclopropenone]	8-12 weeks	29-78%			
							RXI-109: CTGF-targeting sd-rxRNA consisting of sense strand SEQ ID NO:27 (TEG-Chl) and antisense strand SEQ ID NO:28 (sense GCACCUUUCUAGA; antisense UCUAGAAAGGUGCAAACAU; TEG-cholesterol on sense strand; (2)..(2) Modified with 2′Ome; (4)..(10) Modified with 2′Ome; (11)..(13) Phosphorothioate internucleotide bond; (12)..(13) Modified with 2′Ome; (13)..(13) Modified with TEG-Chl; (1)..(1) Modified with P; (1)..(1) Modified with 2′Ome; (2)..(3) Modified with 2′fluoro; (6)..(6) Modified with 2′Ome; (8)..(8) Modified with 2′Ome; (11)..(11) Modified with 2′fluoro; (13)..(13) Modified with 2′Ome; (13)..(19) Phosphorothioate internucleotide bond; (17)..(17) Modified with 2′Ome)			51%	67%	sustained for at least five days
